Data taken from patent US10611750B2, “Tetrahydroquinoline compositions as bet bromodomain inhibitors” (FORMA Therapeutics, Inc., priority 2013, dated 2020).

Columns and labels:
[1] = tested on: acute myelocytic leukemia (AML) cell line MV4-11; experiment: Oncology cell growth assay (3-day proliferation, CellTiter-Glo); type: cell-based; conditions: Homo sapiens, MV4-11, 72 h, MV4-11 cells, 3000 cells/well, compounds listed under IC50 range headings, read-out: MV411 IC50 (gIC50, inhibition of proliferation)
Summary of the method: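 A 3-day proliferation test used MV4-11 cells seeded at 3000 per well with eight compound concentrations (10 μM top, 3-fold dilution) at 37° C in 5% CO2. CellTiter-Glo luminescence defined viable cell signal. A four-parameter logistic curve against DMSO and background wells gave the gIC50.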

[2] = target: T1, BRD4 Bromodomain 1 (BRD4 BD1) (Homo sapiens, UniProt O60885); experiment: AlphaScreen binding assay, BRD4 BD1; conditions: His-tagged BRD4 BD1 50 nM, biotinylated H4 (1-21) K5/8/12/16 tetra-acetylated peptide 50 nM, compounds listed under IC50 range headings
T1 construct: 44-168 and BRD4 BD2
Summary of the method: (§1)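 Compound dilution series were mixed with His-tagged BRD4 bromodomain and biotinylated tetra-acetylated H4 (1-21) peptide at pH 7.3 (BD1 and peptide at 50 nM, BD2 and peptide at 100 nM). Donor and acceptor beads were then added, and plates were equilibrated at least 1 h before reading. IC50 values were fitted with a four-parameter logistic model.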

[3] = target: T2, BRD4 Bromodomain 2 (BRD4 BD2) (Homo sapiens, UniProt O60885); experiment: AlphaScreen binding assay, BRD4 BD2; conditions: His-tagged BRD4 BD2 100 nM, biotinylated H4 (1-21) K5/8/12/16 tetra-acetylated peptide 100 nM, compounds listed under IC50 range headings
T2 construct: 333-460 were cloned, expressed, and purified to homogeneity
Summary of the method: as §1

IC50 [1] [nM]	IC50 [2] [nM]	IC50 [3] [nM]	SMILES
< 500	100 to 1000	< 50	COC(=O)N1c2ccc(-c3cnn(C4CCNCC4)c3)c(Oc3cccc(F)c3C#N)c2CC[C@@H]1C [I-148, (S)-methyl 5-(2-cyano-3-fluorophenoxy)-2-methyl-6-(1-(piperidin-4-yl)-1H-pyrazol-4-yl)-3,4-dihydroquinoline-1(2H)-carboxylate]
< 500	100 to 1000	< 50	COC(=O)N1c2ccc(-c3cnn(C4CCNCC4)c3)c(Oc3cccc(Cl)c3C#N)c2CC[C@@H]1C [I-149, (S)-methyl 5-(3-chloro-2-cyanophenoxy)-2-methyl-6-(1-(piperidin-4-yl)-1H-pyrazol-4-yl)-3,4-dihydroquinoline-1(2H)-carboxylate]
< 500	100 to 1000	< 50	C[C@H]1CCc2c(ccc(-c3cnn(C4CCNCC4)c3)c2Oc2ccccc2C#N)N1C(=O)C1CC1 [I-150, (S)-2-(1-(cyclopropanecarbonyl)-2-methyl-6-(1-(piperidin-4-yl)-1H-pyrazol-4-yl)-1,2,3,4-tetrahydroquinolin-5-yloxy)benzonitrile]
< 500	100 to 1000	< 50	C[C@H]1CCc2c(ccc(-c3cnn(C4CCNCC4)c3)c2Oc2cccc(F)c2C#N)N1C(=O)C1CC1 [I-151, (S)-2-(1-(cyclopropanecarbonyl)-2-methyl-6-(1-(piperidin-4-yl)-1H-pyrazol-4-yl)-1,2,3,4-tetrahydroquinolin-5-yloxy)-6-fluorobenzonitrile]
< 500	100 to 1000	< 50	C[C@H]1CCc2c(ccc(-c3cnn(C4CCNCC4)c3)c2Oc2ccc(C#N)cc2F)N1C(=O)C1CC1 [I-152, (S)-4-(1-(cyclopropanecarbonyl)-2-methyl-6-(1-(piperidin-4-yl)-1H-pyrazol-4-yl)-1,2,3,4-tetrahydroquinolin-5-yloxy)-3-fluorobenzonitrile]
< 500	100 to 1000	< 50	CC(=O)N1c2ccc(-c3cnn(C4CC4)c3)c(Oc3ccccc3C#N)c2CC[C@@H]1C [I-153, (S)-2-(1-acetyl-6-(1-cyclopropyl-1H-pyrazol-4-yl)-2-methyl-1,2,3,4-tetrahydroquinolin-5-yloxy)benzonitrile]
> 1000	100 to 1000	50 to 500	CC(=O)N1c2ccc(-c3cnn(C4CCNCC4)c3)c(Oc3ccc(C(N)=O)cc3)c2CC[C@@H]1C [I-155, (S)-4-(1-acetyl-2-methyl-6-(1-(piperidin-4-yl)-1H-pyrazol-4-yl)-1,2,3,4-tetrahydroquinolin-5-yloxy)benzamide]
< 500	100 to 1000	< 50	CC(=O)N1c2ccc(-c3cnn(C4CCNCC4)c3)c(Oc3ccccc3Cl)c2CC[C@@H]1C [I-157, (S)-1-(5-(2-chlorophenoxy)-2-methyl-6-(1-(piperidin-4-yl)-1H-pyrazol-4-yl)-3,4-dihydroquinolin-1(2H)-yl)ethanone]
< 500	100 to 1000	< 50	COC(=O)N1c2ccc(-c3cnn(C4CCNCC4)c3)c(Oc3ccc(F)cc3)c2CC[C@@H]1C [I-158, (S)-methyl 5-(4-fluorophenoxy)-2-methyl-6-(1-(piperidin-4-yl)-1H-pyrazol-4-yl)-3,4-dihydroquinoline-1(2H)-carboxylate]
< 500	100 to 1000	< 50	COC(=O)N1c2ccc(-c3cnn(C4CCNCC4)c3)c(Oc3ccc(Cl)cc3)c2CC[C@@H]1C [I-159, (S)-methyl 5-(4-chlorophenoxy)-2-methyl-6-(1-(piperidin-4-yl)-1H-pyrazol-4-yl)-3,4-dihydroquinoline-1(2H)-carboxylate]
< 500	100 to 1000	< 50	COC(=O)N1c2ccc(-c3cnn(C4CCNCC4)c3)c(Oc3ccccc3Cl)c2CC[C@@H]1C [I-160, (S)-methyl 5-(2-chlorophenoxy)-2-methyl-6-(1-(piperidin-4-yl)-1H-pyrazol-4-yl)-3,4-dihydroquinoline-1(2H)-carboxylate]
> 1000	100 to 1000	< 50	COC(=O)N1c2ccc(-c3cnn(C4CCNCC4)c3)c(Oc3ccc(C(N)=O)cc3)c2CC[C@@H]1C [I-161, (S)-methyl 5-(4-carbamoylphenoxy)-2-methyl-6-(1-(piperidin-4-yl)-1H-pyrazol-4-yl)-3,4-dihydroquinoline-1(2H)-carboxylate]
< 500	100 to 1000	< 50	COC(=O)N1c2ccc(-c3cnn(C4CCNCC4)c3)c(Oc3ccc(F)c(C#N)c3)c2CC[C@@H]1C [I-162, (S)-methyl 5-(3-cyano-4-fluorophenoxy)-2-methyl-6-(1-(piperidin-4-yl)-1H-pyrazol-4-yl)-3,4-dihydroquinoline-1(2H)-carboxylate]
< 500	100 to 1000	< 50	COC(=O)N1c2ccc(-c3cnn(C4CCNCC4)c3)c(Oc3ccc(F)c(Cl)c3)c2CC[C@@H]1C [I-163, (S)-methyl 5-(3-chloro-4-fluorophenoxy)-2-methyl-6-(1-(piperidin-4-yl)-1H-pyrazol-4-yl)-3,4-dihydroquinoline-1(2H)-carboxylate]
< 500	100 to 1000	< 50	C[C@H]1CCc2c(ccc(-c3cnn(C4CCNCC4)c3)c2Oc2ccc(F)cc2)N1C(=O)C1CC1 [I-164, (S)-cyclopropyl(5-(4-fluorophenoxy)-2-methyl-6-(1-(piperidin-4-yl)-1H-pyrazol-4-yl)-3,4-dihydroquinolin-1 (2H)-yl)methanone]
< 500	100 to 1000	< 50	C[C@H]1CCc2c(ccc(-c3cnn(C4CCNCC4)c3)c2Oc2ccc(Cl)cc2)N1C(=O)C1CC1 [I-166, (S)-(5-(4-chlorophenoxy)-2-methyl-6-(1-(piperidin-4-yl)-1H-pyrazol-4-yl)-3,4-dihydroquinolin-1(2H)-yl)(cyclopropyl)methanone]
< 500	100 to 1000	< 50	C[C@H]1CCc2c(ccc(-c3cnn(C4CCNCC4)c3)c2Oc2ccc(C#N)cc2)N1C(=O)C1CC1 [I-167]
< 500	100 to 1000	< 50	C[C@H]1CCc2c(ccc(-c3cnn(C4CCNCC4)c3)c2Oc2ccccc2)N1C(=O)C1CC1 [I-168, (S)-cyclopropyl(2-methyl-5-phenoxy-6-(1-(piperidin-4-yl)-1H-pyrazol-4-yl)-3,4-dihydroquinolin-1(2H)-yl)methanone]
< 500	100 to 1000	< 50	C[C@H]1CCc2c(ccc(-c3cnn(C4CCNCC4)c3)c2Oc2ccc(F)c(Cl)c2)N1C(=O)C1CC1 [I-169, (S)-(5-(3-chloro-4-fluorophenoxy)-2-methyl-6-(1-(piperidin-4-yl)-1H-pyrazol-4-yl)-3,4-dihydroquinolin-1(2H)-yl)(cyclopropyl)methanone]
< 500	100 to 1000	< 50	C[C@H]1CCc2c(ccc(-c3cnn(C4CNC4)c3)c2Oc2ccc(F)cc2)N1C(=O)C1CC1 [I-170, (S)-(6-(1-(azetidin-3-yl)-1H-pyrazol-4-yl)-5-(4-fluorophenoxy)-2-methyl-3,4-dihydroquinolin-1 (2H)-yl)(cyclopropyl)methanone]
< 500	100 to 1000	< 50	COC(=O)N1c2ccc(-c3cnn(C4CCNC4)c3)c(Oc3ccc(F)cc3)c2CC[C@@H]1C (stereo partly drawn) [I-185, (2S)-methyl 5-(4-fluorophenoxy)-2-methyl-6-(1-(pyrrolidin-3-yl)-1H-pyrazol-4-yl)-3,4-dihydroquinoline-1(2H)-carboxylate]
< 500	100 to 1000	< 50	COC(=O)N1c2ccc(-c3cnn(C4CCNCC4)c3)c(Oc3cccc(F)c3)c2CC[C@@H]1C [I-188, Methyl (S)-5-(3-fluorophenoxy)-2-methyl-6-(1-(piperidin-4-yl)-1H-pyrazol-4-yl)-3,4-dihydroquinoline-1(2H)-carboxylate]
< 500	100 to 1000	< 50	COC(=O)N1c2ccc(-c3cnn(C4CCNCC4)c3)c(Oc3cccc(Cl)c3)c2CC[C@@H]1C [I-189, Methyl (S)-5-(3-chlorophenoxy)-2-methyl-6-(1-(piperidin-4-yl)-1H-pyrazol-4-yl)-3,4-dihydroquinoline-1(2H)-carboxylate]
< 500	100 to 1000	50 to 500	CC(=O)N1c2ccc(-c3cnn(C4CCNCC4)c3)c(Oc3ccc(F)cc3)c2CC[C@@H]1C [I-190, (S)-1-(5-(4-fluorophenoxy)-2-methyl-6-(1-(piperidin-4-yl)-1H-pyrazol-4-yl)-3,4-dihydroquinolin-1(2H)-yl)ethanone]
< 500	100 to 1000	< 50	CC(=O)N1c2ccc(-c3cnn(C4CCNCC4)c3)c(Oc3ccc(Cl)cc3)c2CC[C@@H]1C [I-191, (S)-1-(5-(4-chlorophenoxy)-2-methyl-6-(1-(piperidin-4-yl)-1H-pyrazol-4-yl)-3,4-dihydroquinolin-1(2H)-yl)ethanone]
